Results taken from ChEMBL document CHEMBL4014331, “Design and Synthesis of Soluble and Cell-Permeable PI3Kδ Inhibitors for Long-Acting Inhaled Administration” (J Med Chem, 2017).
Values after ≈ are worked out from the molar mass of the structure shown.

Experiments:
[1] = Metabolic stability in it dosed rat lungs assessed as compound remaining at 4 hrs post dose by LC-MS/MS analysis; assay type: ADME, organism-based; details: lung, inhaled or intranasal, read-out: Stability
PI3K p110 beta/p85 alpha = PI3K p110 beta/p85 alpha (Homo sapiens, UniProt P42338); assay: Inhibition of recombinant human His6-tagged PI3K p110beta/p85alpha using DiC8-PIP2 as substrate preincubated for 15 mins followed by substrate addition measured after 60 mins by ADP-Glo assay; assay type: protein-complex assay
[2] = Terminal half life in it dosed rat lung by LC-MS/MS analysis; assay type: ADME, organism-based; details: inhaled or intranasal, read-out: beta t1/2 (converted)
[3] = molecular target: PI3-kinase p110-alpha/p85-alpha (Homo sapiens, UniProt P42336); assay: Inhibition of recombinant human His6-tagged PI3K p110alpha/p85alpha using DiC8-PIP2 as substrate preincubated for 15 mins followed by substrate addition measured after 60 mins by ADP-Glo assay; assay type: protein-complex assay
[4] = Solubility of the compound; assay type: physicochemical
[5] = molecular target: Phosphatidylinositol 4,5-bisphosphate 3-kinase catalytic subunit gamma isoform (Homo sapiens, UniProt P48736); assay: Inhibition of recombinant human His6-tagged PI3Kgamma (144 to 1102 residues) using DiC8-PIP2 as substrate preincubated for 15 mins followed by substrate addition measured after 60 mins by ADP-Glo assay
[6] = molecular target: PI3-kinase p110-delta/p85-alpha (Homo sapiens, UniProt O00329); assay: Inhibition of recombinant human His6-tagged PI3K p110delta/p85alpha using DiC8-PIP2 as substrate preincubated for 15 mins followed by substrate addition measured after 60 mins by ADP-Glo assay; assay type: protein-complex assay
[7] = molecular target: T1, Phosphatidylinositol 4,5-bisphosphate 3-kinase catalytic subunit delta isoform (Homo sapiens, UniProt O00329); assay: Inhibition of PI3Kdelta in human JeKo1 cells assessed as reduction in Akt phosphorylation at Ser473 residue preincubated for 60 mins followed by Anti-IgM stimulation for 10 mins by TR-FRET assay; assay type: cell-based
T1 sequence (O00329 whole entry): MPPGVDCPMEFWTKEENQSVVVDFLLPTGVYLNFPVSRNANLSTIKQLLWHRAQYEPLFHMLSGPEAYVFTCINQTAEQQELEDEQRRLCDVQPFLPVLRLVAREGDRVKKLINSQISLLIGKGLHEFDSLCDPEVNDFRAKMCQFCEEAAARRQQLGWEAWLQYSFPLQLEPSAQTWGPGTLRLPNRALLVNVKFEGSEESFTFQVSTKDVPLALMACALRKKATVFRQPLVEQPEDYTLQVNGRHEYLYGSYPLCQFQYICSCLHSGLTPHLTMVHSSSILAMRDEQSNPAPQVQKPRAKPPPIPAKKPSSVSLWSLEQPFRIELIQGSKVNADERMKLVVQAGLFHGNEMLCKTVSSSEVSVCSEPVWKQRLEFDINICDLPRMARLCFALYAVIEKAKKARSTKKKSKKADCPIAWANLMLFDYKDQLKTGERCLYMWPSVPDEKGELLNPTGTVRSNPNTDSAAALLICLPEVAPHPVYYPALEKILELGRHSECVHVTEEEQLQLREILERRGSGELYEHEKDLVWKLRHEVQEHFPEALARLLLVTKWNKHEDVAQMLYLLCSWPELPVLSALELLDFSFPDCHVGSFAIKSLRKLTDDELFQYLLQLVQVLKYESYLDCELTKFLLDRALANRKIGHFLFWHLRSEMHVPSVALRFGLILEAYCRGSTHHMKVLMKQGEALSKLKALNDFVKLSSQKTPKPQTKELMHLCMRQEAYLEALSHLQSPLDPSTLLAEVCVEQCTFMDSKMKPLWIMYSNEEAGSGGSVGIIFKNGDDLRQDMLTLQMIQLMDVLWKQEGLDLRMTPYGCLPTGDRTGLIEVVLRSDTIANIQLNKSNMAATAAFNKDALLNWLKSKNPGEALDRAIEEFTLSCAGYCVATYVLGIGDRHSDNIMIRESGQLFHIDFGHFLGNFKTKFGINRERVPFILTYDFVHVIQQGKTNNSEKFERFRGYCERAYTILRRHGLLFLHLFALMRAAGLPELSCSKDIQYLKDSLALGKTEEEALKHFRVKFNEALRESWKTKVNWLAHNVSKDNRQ

[8] = Lipophilicity, log D of the compound; assay type: physicochemical; details: octanol/water
[9] = Metabolic stability in it dosed rat lungs assessed as compound remaining at 24 hrs post dose by LC-MS/MS analysis; assay type: ADME, organism-based; details: lung, inhaled or intranasal, read-out: Stability
[10] = Dissociation constant, basic pKa of compound; assay type: physicochemical
[11] = Dissociation constant, acidic pKa of compound; assay type: physicochemical
[12] = Metabolic stability in it dosed rat lungs assessed as compound remaining at 3 mins post dose by LC-MS/MS analysis; assay type: ADME, organism-based; details: lung, inhaled or intranasal, read-out: Stability

Sequence of PI3-kinase p110-delta/p85-alpha (P27986 whole entry, one chain of several, canonical isoform): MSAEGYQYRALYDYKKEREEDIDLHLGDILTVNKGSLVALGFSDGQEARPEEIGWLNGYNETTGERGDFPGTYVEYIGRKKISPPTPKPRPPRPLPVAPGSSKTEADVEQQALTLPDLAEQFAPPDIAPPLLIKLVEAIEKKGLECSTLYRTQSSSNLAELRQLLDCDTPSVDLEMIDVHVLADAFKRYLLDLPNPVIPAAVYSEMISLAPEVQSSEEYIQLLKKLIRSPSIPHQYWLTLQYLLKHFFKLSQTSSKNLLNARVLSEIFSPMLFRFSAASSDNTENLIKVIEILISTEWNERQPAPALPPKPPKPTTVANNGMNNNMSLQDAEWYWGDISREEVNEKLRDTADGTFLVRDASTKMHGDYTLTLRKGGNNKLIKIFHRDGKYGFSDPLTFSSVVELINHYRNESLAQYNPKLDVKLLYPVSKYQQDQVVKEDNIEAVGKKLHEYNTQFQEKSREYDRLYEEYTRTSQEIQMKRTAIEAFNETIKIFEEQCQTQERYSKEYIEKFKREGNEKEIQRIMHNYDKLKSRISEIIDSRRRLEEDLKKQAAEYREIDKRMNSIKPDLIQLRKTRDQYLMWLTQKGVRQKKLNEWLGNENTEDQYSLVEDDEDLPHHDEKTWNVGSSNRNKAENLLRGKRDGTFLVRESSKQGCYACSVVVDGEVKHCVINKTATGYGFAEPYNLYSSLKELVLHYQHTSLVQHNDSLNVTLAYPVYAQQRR
Sequence of PI3K p110 beta/p85 alpha (P27986 whole entry): as the sequence (P27986 whole entry, one chain of several, canonical isoform) above
Sequence of PI3K p110 beta/p85 alpha (P42338 whole entry): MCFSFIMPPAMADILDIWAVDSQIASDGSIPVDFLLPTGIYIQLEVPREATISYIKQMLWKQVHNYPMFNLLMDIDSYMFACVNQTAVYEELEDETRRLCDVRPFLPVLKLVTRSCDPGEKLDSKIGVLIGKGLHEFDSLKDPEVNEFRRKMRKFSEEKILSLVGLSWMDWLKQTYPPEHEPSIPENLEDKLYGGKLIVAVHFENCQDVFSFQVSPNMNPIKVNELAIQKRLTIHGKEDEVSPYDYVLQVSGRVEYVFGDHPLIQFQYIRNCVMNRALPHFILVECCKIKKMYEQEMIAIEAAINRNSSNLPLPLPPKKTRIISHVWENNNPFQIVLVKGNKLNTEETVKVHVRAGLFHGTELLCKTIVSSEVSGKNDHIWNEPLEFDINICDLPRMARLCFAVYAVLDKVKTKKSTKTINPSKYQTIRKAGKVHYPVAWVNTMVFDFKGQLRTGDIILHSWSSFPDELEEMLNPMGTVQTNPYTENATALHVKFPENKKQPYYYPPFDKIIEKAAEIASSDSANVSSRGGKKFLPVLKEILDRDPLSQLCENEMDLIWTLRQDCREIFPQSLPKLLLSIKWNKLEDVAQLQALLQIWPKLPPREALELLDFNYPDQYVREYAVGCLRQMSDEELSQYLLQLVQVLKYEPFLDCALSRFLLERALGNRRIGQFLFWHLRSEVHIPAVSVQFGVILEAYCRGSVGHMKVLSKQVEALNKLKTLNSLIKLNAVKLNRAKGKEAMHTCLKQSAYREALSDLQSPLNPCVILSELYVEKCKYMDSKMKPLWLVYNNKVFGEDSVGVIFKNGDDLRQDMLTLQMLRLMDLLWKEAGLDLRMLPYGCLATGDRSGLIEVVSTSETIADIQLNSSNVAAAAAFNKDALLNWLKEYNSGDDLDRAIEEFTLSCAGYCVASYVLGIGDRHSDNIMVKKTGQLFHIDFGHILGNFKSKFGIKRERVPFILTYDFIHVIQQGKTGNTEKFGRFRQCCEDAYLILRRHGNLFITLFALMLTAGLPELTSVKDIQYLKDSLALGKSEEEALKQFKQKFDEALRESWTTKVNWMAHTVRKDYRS
Sequence of PI3-kinase p110-alpha/p85-alpha (P27986 whole entry): as the sequence (P27986 whole entry, one chain of several, canonical isoform) above
Sequence of PI3-kinase p110-alpha/p85-alpha (P42336 whole entry): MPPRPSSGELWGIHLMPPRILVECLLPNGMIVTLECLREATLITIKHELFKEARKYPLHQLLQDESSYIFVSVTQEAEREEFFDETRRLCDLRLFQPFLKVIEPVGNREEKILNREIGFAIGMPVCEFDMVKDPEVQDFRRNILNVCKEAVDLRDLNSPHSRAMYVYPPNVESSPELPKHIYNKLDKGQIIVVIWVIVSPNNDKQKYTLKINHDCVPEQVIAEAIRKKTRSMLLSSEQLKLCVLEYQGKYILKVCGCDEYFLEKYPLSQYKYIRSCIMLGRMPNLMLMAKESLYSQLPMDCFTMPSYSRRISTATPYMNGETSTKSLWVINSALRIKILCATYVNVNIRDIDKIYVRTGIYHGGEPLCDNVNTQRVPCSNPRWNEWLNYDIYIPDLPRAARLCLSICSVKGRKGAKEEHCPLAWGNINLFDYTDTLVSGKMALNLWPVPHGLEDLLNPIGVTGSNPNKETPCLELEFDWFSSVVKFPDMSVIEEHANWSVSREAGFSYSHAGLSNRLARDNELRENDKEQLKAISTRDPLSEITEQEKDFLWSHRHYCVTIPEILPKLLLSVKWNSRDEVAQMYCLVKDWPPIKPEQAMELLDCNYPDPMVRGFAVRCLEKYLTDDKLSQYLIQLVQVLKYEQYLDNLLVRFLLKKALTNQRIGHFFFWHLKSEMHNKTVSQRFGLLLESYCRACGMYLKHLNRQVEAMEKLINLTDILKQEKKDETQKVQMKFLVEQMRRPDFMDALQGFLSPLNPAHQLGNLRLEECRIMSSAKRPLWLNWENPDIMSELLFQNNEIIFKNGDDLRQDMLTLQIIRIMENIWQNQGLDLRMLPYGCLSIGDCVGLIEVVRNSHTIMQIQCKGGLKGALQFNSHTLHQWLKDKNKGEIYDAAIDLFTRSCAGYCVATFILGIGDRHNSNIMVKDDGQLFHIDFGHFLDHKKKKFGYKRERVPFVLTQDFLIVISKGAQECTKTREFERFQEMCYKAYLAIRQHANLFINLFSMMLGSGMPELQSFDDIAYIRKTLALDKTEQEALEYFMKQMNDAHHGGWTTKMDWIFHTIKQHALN
Sequence of Phosphatidylinositol 4,5-bisphosphate 3-kinase catalytic subunit gamma isoform (P48736 whole entry, the tested form may be a part, canonical isoform): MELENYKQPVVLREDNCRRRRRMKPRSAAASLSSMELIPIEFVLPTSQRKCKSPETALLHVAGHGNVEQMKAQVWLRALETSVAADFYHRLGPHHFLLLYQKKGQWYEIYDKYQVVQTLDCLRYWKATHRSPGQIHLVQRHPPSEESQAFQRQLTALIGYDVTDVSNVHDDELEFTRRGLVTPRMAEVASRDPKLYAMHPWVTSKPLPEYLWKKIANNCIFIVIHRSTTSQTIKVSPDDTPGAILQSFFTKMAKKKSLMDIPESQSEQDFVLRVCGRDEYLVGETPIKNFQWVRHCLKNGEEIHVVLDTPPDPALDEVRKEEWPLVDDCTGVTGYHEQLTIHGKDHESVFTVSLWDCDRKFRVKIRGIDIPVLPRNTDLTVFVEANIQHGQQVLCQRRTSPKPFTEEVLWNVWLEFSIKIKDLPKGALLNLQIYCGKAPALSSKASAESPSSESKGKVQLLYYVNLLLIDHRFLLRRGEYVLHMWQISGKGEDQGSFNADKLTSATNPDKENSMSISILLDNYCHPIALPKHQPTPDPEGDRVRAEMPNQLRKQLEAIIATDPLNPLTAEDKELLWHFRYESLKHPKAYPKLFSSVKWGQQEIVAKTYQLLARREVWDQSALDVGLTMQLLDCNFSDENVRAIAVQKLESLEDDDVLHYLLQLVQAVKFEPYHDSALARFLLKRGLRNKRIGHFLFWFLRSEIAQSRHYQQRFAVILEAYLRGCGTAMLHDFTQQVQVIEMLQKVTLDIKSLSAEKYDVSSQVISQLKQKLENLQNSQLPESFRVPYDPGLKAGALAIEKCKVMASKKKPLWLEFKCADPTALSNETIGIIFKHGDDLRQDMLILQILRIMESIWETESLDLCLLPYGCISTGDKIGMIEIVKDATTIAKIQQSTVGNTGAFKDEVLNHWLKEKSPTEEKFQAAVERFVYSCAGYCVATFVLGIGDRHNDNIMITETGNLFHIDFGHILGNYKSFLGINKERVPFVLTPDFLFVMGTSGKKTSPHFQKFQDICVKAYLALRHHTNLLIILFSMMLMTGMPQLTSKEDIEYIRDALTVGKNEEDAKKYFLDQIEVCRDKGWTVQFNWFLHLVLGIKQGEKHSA

SMILES	remaining at 4 h [1]	IC50 (PI3K p110 beta/p85 alpha)	half-life [2]	IC50 [3]	solubility [4]	IC50 [5]	IC50 [6]	IC50 [7]	logD [8]	remaining at 24 h [9]	pKa [10]	pKa [11]	remaining at 0.05 h [12]
CNCc1cccc(-c2c([C@H](C)Nc3ncnc(N)c3C#N)cc3scc(C)n3c2=O)c1	2.5%	10 nM	4.9 h	1260 nM	> 1000 µM	631 nM	0.794 nM	20 nM	-0.2	0%	–	–	–
Cc1csc2cc([C@H](C)Nc3ncnc(N)c3C#N)c(-c3cccc(CNCCCCOCCc4ccccc4)c3)c(=O)n12	4.8%	7.94 nM	3.5 h	501 nM	699 µM (≈ 425 µg/mL)	316 nM	0.398 nM	1.26 nM	2.3	0%	–	–	–
Cc1csc2cc([C@H](C)Nc3ncnc(N)c3C#N)c(-c3cccc(CN(C)CCCN(C)Cc4ccc(Cl)cc4)c3)c(=O)n12	–	12.6 nM	13 h	≥ 631 nM	–	≥ 200 nM	0.631 nM	3.16 nM	3.2	3.3%	7.5	8.8	–
Cc1csc2cc([C@H](C)Nc3ncnc(N)c3C#N)c(-c3cccc(CC4CCN(C(C)C)CC4)c3)c(=O)n12	–	398 nM	–	1000 nM	–	251 nM	0.631 nM	1.58 nM	1.1	–	–	–	–
Cc1csc2cc([C@H](C)Nc3ncnc(N)c3C#N)c(-c3cccc(CN(C)CC(C)C)c3)c(=O)n12	0%	100 nM	–	2000 nM	12 µM (≈ 6.02 µg/mL)	> 794 nM	0.501 nM	0.631 to 1.58 nM	2.3	0%	–	–	6.5%
Cc1csc2cc([C@H](C)Nc3ncnc(N)c3C#N)c(-c3cccc(CN)c3)c(=O)n12	2%	7.94 nM	1.6 h	1260 nM	> 1000 µM	200 nM	0.631 nM	39.8 nM	-0.3	0%	–	–	–
Cc1csc2cc([C@H](C)Nc3ncnc(N)c3C#N)c(-c3cccc(CN(C)CCCCN(C)Cc4ccccc4)c3)c(=O)n12	–	15.8 nM	17.6 h	≥ 631 nM	–	≥ 200 nM	0.501 nM	2 nM	2.2	7.4%	7	9.1	–
Cc1csc2cc([C@H](C)Nc3ncnc(N)c3C#N)c(-c3cccc(CNCCN4CCOCC4)c3)c(=O)n12	–	20 nM	4.2 h	≥ 631 nM	–	≥ 200 nM	0.631 nM	12.6 nM	0.6	0.1%	4.7	9.6	–
Cc1csc2cc([C@H](C)Nc3ncnc(N)c3C#N)c(-c3cccc(CN4CCC(CN(C)CC(C)C)CC4)c3)c(=O)n12	–	50.1 nM	12 h	≥ 631 nM	–	≥ 200 nM	0.631 nM	2.51 nM	2.1	3.3%	8	9.8	–
Cc1csc2cc([C@H](C)Nc3ncnc(N)c3C#N)c(-c3cccc(CN(C)CCCN4C[C@@H](C)O[C@@H](C)C4)c3)c(=O)n12	–	126 nM	5.9 h	≥ 631 nM	–	≥ 200 nM	1.26 nM	5.01 nM	1.5	0.8%	5.7	8.5	–
Cc1csc2cc([C@H](C)Nc3ncnc(N)c3C#N)c(-c3cccc(CN4CCC(CN(C)Cc5ccccn5)CC4)c3)c(=O)n12	–	63.1 nM	10.9 h	≥ 631 nM	–	≥ 200 nM	0.794 nM	2 nM	2	5.2%	7	9	–
Cc1csc2cc([C@H](C)Nc3ncnc(N)c3C#N)c(-c3ccccc3)c(=O)n12	0%	50.1 nM	< 0.1 h	631 nM	77 µM (≈ 31 µg/mL)	12.6 nM	0.398 nM	0.631 to 0.794 nM	2.7	0%	–	–	2%
CCN(CCN1CCOCC1)Cc1cccc(-c2c([C@H](C)Nc3ncnc(N)c3C#N)cc3scc(C)n3c2=O)c1	–	251 nM	–	≥ 631 nM	–	≥ 200 nM	0.794 nM	1.26 nM	1.4	0%	4	8	–
Cc1csc2cc([C@H](C)Nc3ncnc(N)c3C#N)c(-c3cccc(CN(C)CCCCN4C[C@@H](C)O[C@@H](C)C4)c3)c(=O)n12	–	79.4 nM	7.6 h	≥ 631 nM	–	≥ 200 nM	1.26 nM	6.31 nM	1.5	3.9%	6.3	8.9	–
COCCNCc1cccc(-c2c([C@H](C)Nc3ncnc(N)c3C#N)cc3scc(C)n3c2=O)c1	0.8%	20 nM	1.3 h	1260 nM	> 1000 µM	398 nM	0.631 nM	2.51 nM	0.7	0%	–	–	–
Cc1csc2cc([C@H](C)Nc3ncnc(N)c3C#N)c(-c3cccc(CN(C)C)c3)c(=O)n12	0.2%	63.1 nM	2.3 h	3160 nM	956 µM (≈ 439 µg/mL)	631 nM	0.794 nM	1.58 nM	0.8	0%	–	–	–
Cc1csc2cc([C@H](C)Nc3ncnc(N)c3C#N)c(-c3cccc(CN4CCC4)c3)c(=O)n12	0.5%	39.8 nM	1.1 h	1580 nM	954 µM (≈ 450 µg/mL)	501 nM	0.501 nM	2.51 nM	0.5	0%	–	–	–
Cc1csc2cc([C@H](C)Nc3ncnc(N)c3C#N)c(-c3cccc(CCN(C)C)c3)c(=O)n12	–	50.1 nM	–	1260 nM	–	> 1000 nM	0.794 nM	2.51 nM	0.5	–	–	–	–
Cc1csc2cc([C@H](C)Nc3ncnc(N)c3C#N)c(-c3cccc(OCCN(C)C)c3)c(=O)n12	–	200 nM	–	7940 nM	–	316 nM	1.58 nM	6.31 nM	0.7	–	–	–	–
